How the values were obtained:
[1] = Hygroscopicity of the finished product; type: physicochemical; conditions: dried solid product
[2] = pH of 3% solution of the finished product in H2O; type: physicochemical; conditions: 3% solution in H2O
Experimental: The reaction was monitored by addition of small amounts of reaction mixture to water. When the mixture provides a pH of 8 and remains at this pH the reaction was considered complete. The product was filtered and dried at temperature not greater than 60° C. The mother liquor is made up with fresh MTBE, ready for the next batch.

Row | SMILES | hygroscopicity of product [1] | pH [2]
1 | CNC.Cc1cc(Cl)ccc1OCC(=O)O [Example 1, MCPA/DMA Salt] | extremely hydroscopic | 5.5-6.5
2 | CNC.COc1c(Cl)ccc(Cl)c1C(=O)O [Example 2, Dicamba/DMA Salt] | extremely hydroscopic | 5.5-6.5
3 | CNC.Cc1cc(Cl)ccc1OC(C)C(=O)O (centres unmarked) [Example 3, MCPP/DMA Salt] | extremely hydroscopic | 5.8-6.3
4 | CC(Oc1ccc(Cl)cc1Cl)C(=O)O.CNC (centres unmarked) [Example 4, 2,4-DP/DMA Salt] | not hydroscopic | 5.8-6.5
